Results taken from patent US9371295B2, “Compounds for use in the treatment of disorders that are ameliorated by inhibition of HDAC” (IRBM—Science Park S.p.A., priority 2012, dated 2016).

Tests used:
[1] = test system: human γ-globin promoter (EGFP reporter) in K562 cells; test: HbF activation assay on K562 (EGFP/RFP reporter model system for screening of inducers of fetal hemoglobin); format: cell-based; conditions: 60 hours
Method in brief: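 K562 cells stably carrying EGFP under the human γ-globin promoter and far-red FP under the β-globin promoter, with the LCR, were seeded at 1000 cells/well. Cells were exposed to compounds (0.25% DMSO final) for 60 h at 37 °C. Fluorescence was read by plate cytometry, normalized to Hoechst nuclei count, which also indicated proliferation or death.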

HDAC in Hela cells = test: HDAC Hela Cell Based assay
K562 cells [2] = test: Antiproliferative effect on K562 cells (cell number after 5 days); format: cell-based; conditions: Homo sapiens, 120 h, 5 days culture, average of three experiments
Procedure: (§1) The biological activity of the compounds of the present application was evaluated by examining the capacity to modulate the expression of γ-globin genes in the human K562 cell line, which is capable of differentiating in the erythroid manner by expressing genes for γ-globin if treated with modifiers of the biological response that are suitable for the purpose (Bianchi et al, J. Haematol., 113, 4, p. 951-961, 2001). The human K562 cells were cultured in RPMI 1640 medium (Sigma, St Louis, Mo., USA) supplemented with 10% foetal bovine serum (FBS; Analitical de Mori, Milan, Italy), 100 units/mL penicillin and 100 μg/mL streptomycin. Cell growth was determined according to cell number/ml, using a cell counter (Coulter Electronics, Hialeah, Fla., USA). For experiments, K562 cell cultures were initiated at 3×10^4/mL and the chemical inducers at the indicated concentrations added. Following 3-5 days incubation without a medium change erythroid differentiation was determined by staining the cells in a solution containing 0.2% benzidine in 0.5 M glacial acetic acid, 10% H2O2. Benzidine positivity indicates the presence of intracellular Hb.
(§2) The erythroid differentiation of K562 cells was investigated following treatment with selected compounds of the invention. The effect on cell proliferation was first determined for all tested molecules by culture of K562 cells in the presence of increasing concentration of the compounds. The cell number per sample was then determined after 3, 4 and 5 days. The IC50 values reported in Table 3 for the antiproliferative effect were calculated from the concentration of the compounds necessary to decrease the cell number to 50% of the values obtained in control untreated K562 cell cultures, after a 5 days culture period. Erythroid differentiation was measured by benzidine staining after 5, 6 and 7 days of cell culture and by quantitative reverse transcriptase polymerase-chain reaction (RT-qPCR) to quantify the expression of γ-globin mRNA. Different concentrations of tested compounds were employed because of their differing antiproliferative effects; accordingly, concentrations were chosen to maximize the erythroid induction effect without extensive reduction of cell viability. In Table 3 the % of benzidine positive cells and the increase in γ-globin mRNA assayed by RT-qPCR after 6 days of culture period are reported.

K562 cells [3] = test: Erythroid differentiation of K562 cells by benzidine staining; format: cell-based, human
Procedure: as §1, §2
Table 4 reports induction of erythroid differentiation in K562 cells treated with an optimized concentration of the compound 2 in comparison with known inducers. Compound 2 is able to stimulate an increase of the proportion of benzidine-positive (hemoglobin producing) K562 cells. This is associated with an increase of the expression of γ-globin mRNA.

[4] = test system: γ-globin mRNA in K562 cells; test: γ-globin mRNA in K562 cells by quantitative RT-PCR; format: cell-based, human; conditions: 6 days
Procedure: The expression of the genes encoding for γ-globin was evaluated by quantitative RT-PCR. The analyses were carried out on material extracted from cells treated for 6 days in the conditions indicated.
Total RNA was extracted from cells by the use of TRI Reagent RNA isolation Reagent (Sigma Aldrich). All solutions and laboratory equipment were certified RNAse free. Following the manufacturers instructions, 1 mL of the reagent was added to 5*10^6 cells. After a 3 minute incubation at room temperature, 20 μg of glycogen and 200 μL of chloroform were added. The samples were then centrifuged and the aqueous phase recovered. This phase was diluted with one volume of isopropanol and centrifuged at 4° C. to let the RNA precipitate. After a washing step with methanol, the extracted RNA was dried and then resuspended in RNAse free water. The purified RNAs were stored at −80° C.
In order to determine the quality of the extracted RNA, electrophoresis runs on 0.8% agarose gel were carried out. The amount of the recovered RNA was quantified by its absorbance at 260 nm. Protein contamination quality control was carried out by ensuring that the 260/280 nm absorbance ratio was greater than 1.8
cDNA production from the extracted RNA was carried out as per ImProm-II™ Reverse Transcription System (Promega). 0.5 μg di RNA was retro-transcribed by using random hexamer. The produced cDNA was then stored at −80° C. until use.
The expression of the genes encoding for γ-globin was evaluated by quantitative RT-PCR, using the following primer and probe oligonucleotides (FAM=6-carboxy fluorescein, TAMRA=6-carboxy-N,N,N′,N′-tetramethylrhodamine):
For real-time PCR analysis we used as reference gene the endogenous control human GAPDH kit (Applied Biosystems).
as §2

## CCC(=O)CCCCC[C@H](NC(=O)C1CN(C)C1)c1ncc(-c2cc3ccccc3nc2OC)o1 [Compound 2, (S)-N-(1-(5-(2-methoxyquinolin-3-yl)oxazol-2-yl)-7-oxononyl)-1-methylazetidine-3-carboxamide]
[1]
  EC50: 0.1 to 1 µM
HDAC in Hela cells
  IC50: < 0.1 µM
K562 cells [2]
  IC50: 0.075 µM
K562 cells [3]; 70 nM
  % of benzidine positive cells after 6 days: 10%
K562 cells [3]; optimized concentration, mean ± SD of six experiments
  Benzidine positive cells (%): 25 ± 3.5%
[4]; 70 nM
  γ-globin mRNA content (fold induction): 1.75 fold induction

## CCC(=O)CCCCC[C@H](NC(=O)C(=O)N1CCN(C)CC1)c1ncc(-c2cc3ccccc3nc2OC)o1 [Compound 37, (S)-N-(1-(5-(2-methoxyquinolin-3-yl)oxazol-2-yl)-7-oxononyl)-2-(4-methylpiperazin-1-yl)-2-oxoacetamide]
[1]
  EC50: > 1 µM
HDAC in Hela cells
  IC50: 0.1 to 1 µM
K562 cells [2]
  IC50: 0.6 µM
K562 cells [3]; 1600 nM
  % of benzidine positive cells after 6 days: 16%
[4]; 1600 nM
  γ-globin mRNA content (fold induction): 7.84 fold induction

## CCC(=O)CCCCC[C@H](NC(=O)C1(F)CN(C)C1)c1ncc(-c2cc3ccccc3nc2OC)o1 [Compound 67, (S)-3-fluoro-N-(1-(5-(2-methoxyquinolin-3-yl)oxazol-2-yl)-7-oxononyl)-1-methylazetidine-3-carboxamide]
[1]
  EC50: > 1 µM
HDAC in Hela cells
  IC50: 0.1 to 1 µM
K562 cells [2]
  IC50: 0.95 µM
K562 cells [3]; 1800 nM
  % of benzidine positive cells after 6 days: 12%
[4]; 1800 nM
  γ-globin mRNA content (fold induction): 5.08 fold induction

## CCC(=O)CCCCC[C@H](NC(=O)Cn1nc(C)nc1C)c1ncc(-c2cc3ccccc3nc2OC)o1 [Compound 80, (S)-2-(3,5-dimethyl-1H-1,2,4-triazol-1-yl)-N-(1-(5-(2-methoxyquinolin-3-yl)oxazol-2-yl)-7-oxononyl)acetamide]
[1]
  EC50: 0.1 to 1 µM
HDAC in Hela cells
  IC50: 0.1 to 1 µM
K562 cells [2]
  IC50: 0.25 µM
K562 cells [3]; 200 nM
  % of benzidine positive cells after 6 days: 1%
[4]; 200 nM
  γ-globin mRNA content (fold induction): 1.03 fold induction

## CCC(=O)CCCCC[C@H](NC(=O)c1cnc(CN2CCCC2)s1)c1ncc(-c2cc3ccccc3nc2OC)o1 [Compound 82, (S)-N-(1-(5-(2-methoxyquinolin-3-yl)oxazol-2-yl)-7-oxononyl)-2-(pyrrolidin-1-ylmethyl)thiazole-5-carboxamide]
[1]
  EC50: 0.1 to 1 µM
HDAC in Hela cells
  IC50: < 0.1 µM
K562 cells [2]
  IC50: > 0.4 µM
K562 cells [3]; 260 nM
  % of benzidine positive cells after 6 days: 4.5%
[4]; 260 nM
  γ-globin mRNA content (fold induction): 0.96 fold induction

## CCC(=O)CCCCC[C@H](NC(=O)C1CN(C)C1)c1ncc(-c2cc3ccccc3n(C)c2=O)o1 [Compound 92, (S)-1-methyl-N-(1-(5-(1-methyl-2-oxo-1,2-dihydroquinolin-3-yl)oxazol-2-yl)-7-oxononyl)azetidine-3-carboxamide]
[1]
  EC50: 0.1 to 1 µM
HDAC in Hela cells
  IC50: < 0.1 µM
K562 cells [2]
  IC50: 0.05 µM
K562 cells [3]; 40 nM
  % of benzidine positive cells after 6 days: 8%
[4]; 40 nM
  γ-globin mRNA content (fold induction): 1.24 fold induction

## CCC(=O)CCCCC[C@H](NC(=O)CCN(C)C)c1ncc(-c2cc3ccccc3n(C)c2=O)o1 [Compound 106, (S)-3-(dimethylamino)-N-(1-(5-(1-methyl-2-oxo-1,2-dihydroquinolin-3-yl)oxazol-2-yl)-7-oxononyl)propanamide]
[1]
  EC50: < 0.1 µM
HDAC in Hela cells
  IC50: < 0.1 µM
K562 cells [2]
  IC50: 0.041 µM
K562 cells [3]; 60 nM
  % of benzidine positive cells after 6 days: 8.5%
[4]; 60 nM
  γ-globin mRNA content (fold induction): 2.01 fold induction

## CCC(=O)CCCCC[C@H](NC(=O)C(C)(C)N(C)C)c1ncc(-c2cc3ccccc3n(C)c2=O)o1 [Compound 107, (S)-2-(dimethylamino)-2-methyl-N-(1-(5-(1-methyl-2-oxo-1,2-dihydroquinolin-3-yl)oxazol-2-yl)-7-oxononyl)propanamide]
[1]
  EC50: < 0.1 µM
HDAC in Hela cells
  IC50: < 0.1 µM
K562 cells [2]
  IC50: 0.024 µM
K562 cells [3]; 40 nM
  % of benzidine positive cells after 6 days: 2%
[4]; 40 nM
  γ-globin mRNA content (fold induction): 1.87 fold induction

## CCC(=O)CCCCC[C@H](NC(=O)C1CCN(C)CC1)c1ncc(-c2cc3ccccc3n(C)c2=O)o1 [Compound 109, (S)-1-methyl-N-(1-(5-(1-methyl-2-oxo-1,2-dihydroquinolin-3-yl)oxazol-2-yl)-7-oxononyl)piperidine-4-carboxamide]
[1]
  EC50: 0.1 to 1 µM
HDAC in Hela cells
  IC50: < 0.1 µM
K562 cells [2]
  IC50: > 0.05 µM
K562 cells [3]; 60 nM
  % of benzidine positive cells after 6 days: 1.5%
[4]; 60 nM
  γ-globin mRNA content (fold induction): 1.31 fold induction

## CCC(=O)CCCCC[C@H](NC(=O)c1cncs1)c1ncc(-c2cc3ccccc3n(C)c2=O)o1 [Compound 110, (S)-N-(1-(5-(1-methyl-2-oxo-1,2-dihydroquinolin-3-yl)oxazol-2-yl)-7-oxononyl)thiazole-5-carboxamide]
[1]
  EC50: 0.1 to 1 µM
HDAC in Hela cells
  IC50: < 0.1 µM
K562 cells [2]
  IC50: 0.2 µM
K562 cells [3]; 300 nM
  % of benzidine positive cells after 6 days: 5%
[4]; 300 nM
  γ-globin mRNA content (fold induction): 1.19 fold induction

## CCC(=O)CCCCC[C@H](NC(=O)C1(N(C)C)CCCC1)c1ncc(-c2cc3ccccc3n(C)c2=O)o1 [Compound 111, (S)-1-(dimethylamino)-N-(1-(5-(1-methyl-2-oxo-1,2-dihydroquinolin-3-yl)oxazol-2-yl)-7-oxononyl)cyclopentanecarboxamide]
[1]
  EC50: < 0.1 µM
HDAC in Hela cells
  IC50: < 0.1 µM
K562 cells [2]
  IC50: 0.047 µM
K562 cells [3]; 60 nM
  % of benzidine positive cells after 6 days: 6%
[4]; 60 nM
  γ-globin mRNA content (fold induction): 2.51 fold induction
